Values quoted from earlier work, collected in patent publication US10342816B2, “Aqueous ophthalmic formulations based on azithromycin” (MEDIVIS S.R.L., priority 2013, dated 2019).

How the values were obtained:
[1] = pharmacopoeia
[2] = aqueous solution, phosphate buffer, low ionic strength

solubility in water [1]: poorly soluble in water
pH at which the kinetics of the hydrolytic phenomenon has the minimum value [2]: 6.3
SMILES: CC[C@H]1OC(=O)[C@H](C)[C@@H](O[C@H]2CC(C)(OC)[C@@H](O)C(C)O2)[C@H](C)[C@@H](O[C@@H]2OC(C)CC(N(C)C)C2O)[C@](C)(O)C[C@@H](C)CN(C)[C@H](C)[C@@H](O)[C@]1(C)O (some centres unmarked) [azithromycin]
